Test results: US10252989B2, “Picolinamides with fungicidal activity” (DOW AGROSCIENCES LLC, priority 2014, dated 2019)
Like-named read-outs stand apart in the source and are kept apart here.

Experiments:
Zymoseptoria tritici = test: Fungicidal activity: leaf blotch of wheat (SEPTTR), disease control on wheat seedlings; type: in vivo; details: for pest or weed control at 121.5 g/ha: Low-volume cereal activity at 121.5 g/H, wheat leaf blotch
Description: (§1) All fungicides were evaluated using the aforementioned method for their activity vs. all target diseases. Wheat leaf blotch and brown rust activity were also evaluated using track spray applications, in which case the fungicides were formulated as EC formulations, containing 0.1% Trycol 5941 in the spray solutions. Wheat plants (variety Yuma) were grown from seed in a greenhouse in 50% mineral soil/50% soil-less Metro mix until the first leaf was fully emerged, with 7-10 seedlings per pot. These plants were inoculated with an aqueous spore suspension of Zymoseptoria tritici either prior to or after fungicide treatments. After inoculation the plants were kept in 100% relative humidity (one day in a dark dew chamber followed by two to three days in a lighted dew chamber at 20° C.) to permit spores to germinate and infect the leaf. The plants were then transferred to a greenhouse set at 20° C. for disease to develop. When disease symptoms were fully expressed on the 1st leaves of untreated plants, infection levels were assessed on a scale of 0 to 100 percent disease severity. Percent disease control was calculated using the ratio of disease severity on treated plants relative to untreated plants.

Puccinia triticina = test: Fungicidal activity: wheat brown rust (PUCCRT), disease control on wheat seedlings; type: in vivo; details: Low-volume cereal activity at 121.5 g/H
Description: as §1, with “plants. Example B: Evaluation of Fungicidal Activity: Wheat Brown Rust (Puccinia triticina; Synonym: Puccinia recondita f. sp. tritici; Bayer code PUCCRT) Wheat plants (variety Yuma) were grown from seed in a greenhouse in 50% mineral soil/50% soil-less Metro mix until the first leaf was fully emerged, with 7-10 seedlings per pot. These plants were inoculated with an aqueous spore suspension of Puccinia triticina either prior to or after fungicide treatments. […] The plants were then transferred to a greenhouse set at 24° C. for disease to develop. Fungicide formulation, application and disease assessment followed the procedures as described in the Example A.” for “plants.”

[1] = 24 h, 1 Day Protectant, read-out: PUCCRT 1DP disease control rating
[2] = 72 h, 3 Day Curative, read-out: PUCCRT 3DC disease control rating
[3] = 24 h, 1 Day Protectant, read-out: SEPTTR 1DP disease control rating
[4] = 72 h, 3 Day Curative, read-out: SEPTTR 3DC disease control rating

SMILES | pest or weed control at 100 ppm (Zymoseptoria tritici; 72 h, High-volume cereal activity at 100 ppm, 3 Day Curative, wheat seedlings, read-out: SEPTTR 3DC disease control rating) [%] | pest or weed control at 121.5 g/ha (Puccinia triticina; [1]) [%] | pest or weed control at 121.5 g/ha (Puccinia triticina; [2]) [%] | pest or weed control at 121.5 g/ha (Zymoseptoria tritici; [3]) [%] | pest or weed control at 121.5 g/ha (Zymoseptoria tritici; [4]) [%]
COc1ccnc(C(=O)N[C@@H](C)C(=O)O[C@@H](C)[C@H](Cc2ccccc2)c2ccccc2)c1O [Compound 119] | 0 to 80 | – | – | – | –
CC[C@H](NC(=O)c1nccc(OC)c1OC(C)=O)C(=O)O[C@@H](C)C(Cc1ccc(OC)cc1)Cc1ccc(OC)cc1 [Compound 273] | – | 0 to 80 | 0 to 80 | 80 to 100 | 0 to 80
CCCC[C@@H]([C@H](C)OC(=O)[C@H](C)NC(=O)c1nccc(OC)c1OC(C)=O)[C@@H](CC)Oc1ccccc1 [Compound 190] | – | 80 to 100 | 80 to 100 | 80 to 100 | 80 to 100
